Reference: publication doi:10.1101/2023.11.24.568596v1 (biorxiv, 2023)

Key:
Conditions in all cases: binder
DYRK1A = DYRK1A (Homo sapiens, UniProt Q13627)
EphA4 = EphA4 (Homo sapiens, UniProt P54764)
EphB3 = target: T1, EphB3 (Homo sapiens, UniProt P54753)
T1 sequence (P54753 1-998): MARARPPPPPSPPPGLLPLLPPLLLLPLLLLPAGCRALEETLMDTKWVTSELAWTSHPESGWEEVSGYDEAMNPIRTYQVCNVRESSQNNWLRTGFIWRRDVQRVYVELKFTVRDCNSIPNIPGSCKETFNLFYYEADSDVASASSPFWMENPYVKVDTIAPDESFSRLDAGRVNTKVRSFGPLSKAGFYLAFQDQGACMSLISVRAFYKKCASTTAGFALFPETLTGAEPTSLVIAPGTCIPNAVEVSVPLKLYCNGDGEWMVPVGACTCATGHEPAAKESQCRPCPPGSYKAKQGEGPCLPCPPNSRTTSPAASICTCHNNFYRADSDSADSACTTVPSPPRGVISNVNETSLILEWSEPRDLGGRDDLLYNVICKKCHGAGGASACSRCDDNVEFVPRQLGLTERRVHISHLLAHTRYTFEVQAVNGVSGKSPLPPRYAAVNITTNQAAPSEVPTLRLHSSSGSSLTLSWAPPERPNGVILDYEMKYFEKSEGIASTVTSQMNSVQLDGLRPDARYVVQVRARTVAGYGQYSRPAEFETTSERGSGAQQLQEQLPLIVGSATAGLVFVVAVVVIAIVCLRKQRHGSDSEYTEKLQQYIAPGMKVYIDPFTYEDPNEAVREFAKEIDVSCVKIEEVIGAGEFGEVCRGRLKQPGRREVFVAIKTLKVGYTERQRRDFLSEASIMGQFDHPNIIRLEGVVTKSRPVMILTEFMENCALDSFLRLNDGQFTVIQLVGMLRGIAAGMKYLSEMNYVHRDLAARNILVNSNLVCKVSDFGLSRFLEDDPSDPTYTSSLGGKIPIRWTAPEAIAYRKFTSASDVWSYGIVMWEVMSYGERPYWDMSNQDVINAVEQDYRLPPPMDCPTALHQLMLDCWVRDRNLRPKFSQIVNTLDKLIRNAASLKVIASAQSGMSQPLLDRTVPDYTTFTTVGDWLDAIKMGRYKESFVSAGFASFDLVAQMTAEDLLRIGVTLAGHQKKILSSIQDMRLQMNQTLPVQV

FLT1 = FLT1 (Homo sapiens, UniProt P17948)
NQO2A = target: T2, NQO2A (Homo sapiens, UniProt P16083)
T2 sequence (P16083 1-231): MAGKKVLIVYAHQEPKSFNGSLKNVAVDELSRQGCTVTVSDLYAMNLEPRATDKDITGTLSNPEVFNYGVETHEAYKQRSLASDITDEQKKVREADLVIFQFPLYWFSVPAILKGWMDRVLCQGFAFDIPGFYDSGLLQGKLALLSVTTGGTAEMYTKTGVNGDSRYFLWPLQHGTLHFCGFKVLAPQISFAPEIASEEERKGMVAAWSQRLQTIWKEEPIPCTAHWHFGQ

TLK1 = target: T3, TLK1 (Homo sapiens, UniProt Q9UKI8)
T3 sequence (Q9UKI8 1-766): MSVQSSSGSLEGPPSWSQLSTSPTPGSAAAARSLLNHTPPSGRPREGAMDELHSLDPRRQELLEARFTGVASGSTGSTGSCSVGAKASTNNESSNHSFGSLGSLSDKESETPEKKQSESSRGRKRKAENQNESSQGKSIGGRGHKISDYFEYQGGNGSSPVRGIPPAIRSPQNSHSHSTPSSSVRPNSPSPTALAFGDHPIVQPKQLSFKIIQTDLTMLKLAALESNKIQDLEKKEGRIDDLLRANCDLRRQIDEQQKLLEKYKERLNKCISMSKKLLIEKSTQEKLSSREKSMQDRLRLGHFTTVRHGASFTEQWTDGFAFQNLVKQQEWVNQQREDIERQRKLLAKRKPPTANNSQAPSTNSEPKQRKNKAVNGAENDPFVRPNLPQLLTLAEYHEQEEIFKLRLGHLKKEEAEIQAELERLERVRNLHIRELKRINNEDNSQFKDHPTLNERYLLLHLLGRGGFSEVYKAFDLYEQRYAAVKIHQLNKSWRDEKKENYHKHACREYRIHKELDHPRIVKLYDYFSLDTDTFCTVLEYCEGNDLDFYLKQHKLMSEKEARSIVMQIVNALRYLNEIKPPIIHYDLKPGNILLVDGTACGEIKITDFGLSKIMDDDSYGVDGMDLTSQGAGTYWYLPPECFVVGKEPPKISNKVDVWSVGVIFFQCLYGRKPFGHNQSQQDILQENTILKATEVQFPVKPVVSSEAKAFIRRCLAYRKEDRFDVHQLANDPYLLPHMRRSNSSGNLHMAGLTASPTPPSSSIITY

Chain of FLT1 (P17948 whole entry): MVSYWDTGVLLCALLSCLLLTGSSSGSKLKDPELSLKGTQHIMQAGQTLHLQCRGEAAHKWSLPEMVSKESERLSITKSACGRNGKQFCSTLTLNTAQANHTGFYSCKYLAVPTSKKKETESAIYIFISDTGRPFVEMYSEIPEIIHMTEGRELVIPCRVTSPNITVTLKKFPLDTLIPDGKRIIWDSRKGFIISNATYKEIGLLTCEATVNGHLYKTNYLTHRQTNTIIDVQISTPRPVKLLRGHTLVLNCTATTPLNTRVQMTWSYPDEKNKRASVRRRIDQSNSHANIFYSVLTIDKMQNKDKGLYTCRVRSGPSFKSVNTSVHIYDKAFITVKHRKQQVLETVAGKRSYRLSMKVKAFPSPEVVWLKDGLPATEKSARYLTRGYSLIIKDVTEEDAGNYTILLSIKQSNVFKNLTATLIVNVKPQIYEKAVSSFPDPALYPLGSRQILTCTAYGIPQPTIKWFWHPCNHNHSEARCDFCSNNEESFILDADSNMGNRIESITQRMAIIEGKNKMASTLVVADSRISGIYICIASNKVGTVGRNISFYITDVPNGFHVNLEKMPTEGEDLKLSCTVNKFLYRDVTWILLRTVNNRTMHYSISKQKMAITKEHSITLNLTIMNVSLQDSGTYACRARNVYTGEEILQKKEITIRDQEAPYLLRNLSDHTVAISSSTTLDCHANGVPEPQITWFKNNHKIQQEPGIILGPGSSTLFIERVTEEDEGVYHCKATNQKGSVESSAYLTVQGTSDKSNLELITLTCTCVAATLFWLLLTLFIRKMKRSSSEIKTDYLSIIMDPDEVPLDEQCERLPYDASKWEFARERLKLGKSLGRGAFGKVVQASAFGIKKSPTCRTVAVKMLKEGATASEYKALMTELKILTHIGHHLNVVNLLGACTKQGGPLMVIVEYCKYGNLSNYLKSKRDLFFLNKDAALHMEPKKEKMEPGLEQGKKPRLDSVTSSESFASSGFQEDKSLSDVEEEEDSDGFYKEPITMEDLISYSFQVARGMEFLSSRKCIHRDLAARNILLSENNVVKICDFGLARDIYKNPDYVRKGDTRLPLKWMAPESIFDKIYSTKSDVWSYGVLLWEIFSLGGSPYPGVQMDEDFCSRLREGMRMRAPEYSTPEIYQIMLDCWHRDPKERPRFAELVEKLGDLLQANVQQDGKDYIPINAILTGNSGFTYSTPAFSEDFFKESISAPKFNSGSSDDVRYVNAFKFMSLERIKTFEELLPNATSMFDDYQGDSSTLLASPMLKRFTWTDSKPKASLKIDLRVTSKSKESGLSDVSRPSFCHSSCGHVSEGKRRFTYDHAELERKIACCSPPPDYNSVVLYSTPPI
Chain of EphA4 (P54764 whole entry): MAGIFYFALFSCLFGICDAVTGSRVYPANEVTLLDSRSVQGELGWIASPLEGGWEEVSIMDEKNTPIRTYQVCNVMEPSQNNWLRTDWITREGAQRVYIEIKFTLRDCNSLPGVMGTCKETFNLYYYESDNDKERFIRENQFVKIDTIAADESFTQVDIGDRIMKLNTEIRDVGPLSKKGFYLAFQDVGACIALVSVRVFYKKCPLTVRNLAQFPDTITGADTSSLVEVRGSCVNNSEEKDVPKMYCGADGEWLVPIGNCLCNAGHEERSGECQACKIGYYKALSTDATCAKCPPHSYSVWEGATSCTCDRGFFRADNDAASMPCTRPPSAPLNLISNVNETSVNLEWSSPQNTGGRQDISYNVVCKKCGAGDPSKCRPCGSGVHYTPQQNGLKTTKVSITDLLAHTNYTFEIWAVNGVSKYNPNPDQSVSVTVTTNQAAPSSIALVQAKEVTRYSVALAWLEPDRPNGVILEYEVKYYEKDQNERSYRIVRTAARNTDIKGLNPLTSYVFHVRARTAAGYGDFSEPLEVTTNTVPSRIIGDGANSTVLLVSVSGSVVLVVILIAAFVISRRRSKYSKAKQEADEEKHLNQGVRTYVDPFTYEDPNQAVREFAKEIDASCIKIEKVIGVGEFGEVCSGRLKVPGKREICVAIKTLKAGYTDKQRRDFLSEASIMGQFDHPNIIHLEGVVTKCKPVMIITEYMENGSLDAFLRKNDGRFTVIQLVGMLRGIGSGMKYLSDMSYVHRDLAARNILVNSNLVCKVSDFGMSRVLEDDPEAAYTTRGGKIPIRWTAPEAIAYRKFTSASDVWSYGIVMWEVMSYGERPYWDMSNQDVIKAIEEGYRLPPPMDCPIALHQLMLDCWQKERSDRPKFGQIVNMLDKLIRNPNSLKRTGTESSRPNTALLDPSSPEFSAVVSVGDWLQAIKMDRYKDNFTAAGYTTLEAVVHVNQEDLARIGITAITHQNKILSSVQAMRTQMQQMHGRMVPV

COc1cc(N2CCN(C)CC2)ccc1Nc1ncc2cc(-c3ccc(-c4cccc(C)n4)cc3Cl)c(=O)n(CCCCN)c2n1 [compound 36, 8-(4-Aminobutyl)-6-(2-chloro-4-(6-methylpyridin-2-yl)phenyl)-2-((2-methoxy-4-(4-methylpiperazin-1-yl)phenyl)amino)pyrido[2,3-d]pyrimidin-7(8H)-one]
dTm 36 (DYRK1A): -0.8 °C | dTm 36 (EphA4): 2.4 °C | dTm 36 (EphB3): 3.3 °C | dTm 36 (FLT1): 4.4 °C | dTm 36 (NQO2A): -1.0 °C | dTm 36 (TLK1): -1.9 °C

COc1cc(N2CCOCC2)ccc1Nc1ncc2cc(-c3ccc(-c4cccc(C)n4)cc3Cl)c(=O)n(CCCCN)c2n1 [compound 35, 8-(4-Aminobutyl)-6-(2-chloro-4-(6-methylpyridin-2-yl)phenyl)-2-((2-methoxy-4-morpholino-phenyl)amino)pyrido[2,3-d]pyrimidin-7(8H)-one]
dTm 35 (DYRK1A): -2.3 °C | dTm 35 (EphA4): 2.7 °C | dTm 35 (EphB3): 4.5 °C | dTm 35 (FLT1): 5.6 °C | dTm 35 (NQO2A): -2.4 °C | dTm 35 (TLK1): -2.5 °C

Cc1cccc(-c2ccc(-c3cc4cnc(Nc5ccc(F)c(CO)c5)nc4n(CCCCN)c3=O)c(Cl)c2)n1 [compound 33, 8-(4-Aminobutyl)-6-(2-chloro-4-(6-methylpyridin-2-yl)phenyl)-2-((4-fluoro-3-(hydroxymethyl)phenyl)amino)pyrido[2,3-d]pyrimidin-7(8H)-one]
dTm 33 (DYRK1A): -0.6 °C | dTm 33 (EphA4): 3.5 °C | dTm 33 (EphB3): 8.7 °C | dTm 33 (FLT1): 4.9 °C | dTm 33 (NQO2A): 0.9 °C | dTm 33 (TLK1): -0.8 °C

COc1ccc(O)c(Nc2ncc3cc(-c4ccc(-c5cccc(C)n5)cc4Cl)c(=O)n(CCCCN)c3n2)c1 [compound 34, 8-(4-Aminobutyl)-6-(2-chloro-4-(6-methylpyridin-2-yl)phenyl)-2-((2-hydroxy-5-methoxy-phenyl)amino)pyrido[2,3-d]pyrimidin-7(8H)-one]
dTm 34 (DYRK1A): -1.0 °C | dTm 34 (EphA4): 2.5 °C | dTm 34 (EphB3): 4.1 °C | dTm 34 (FLT1): 3.2 °C | dTm 34 (NQO2A): -1.3 °C | dTm 34 (TLK1): -1.1 °C
